Data published in the supplement of paper PMC10290057.
Where a name gives a salt, the structure may show the parent alone.

What was measured:
[1] = system: HCT116; assay: efficacy (fitted maximal change in viability relative to DMSO control); higher = less cytotoxic (negative = loss of viability); conditions: 48 h
[2] = system: HCT116; assay: AC50 cell viability (CellTiter-Glo); higher = less potent; conditions: 48 h
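For AC50 cell viability (CellTiter-Glo) in this document: HCT116 colorectal carcinoma cells screened at five concentrations per compound, luminescent viability scaled between DMSO wells and empty wells on each plate, curves fitted per compound.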
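For efficacy (fitted maximal change in viability relative to DMSO control) in this document: Luminescence-based viability readout, five doses per compound, normalized against on-plate DMSO and empty-well controls, followed by dose-response curve fitting for every drug.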

| Compound | efficacy [1] [%] | AC50 cell viability [2] [µM] |
| --- | --- | --- |
| CC(C)NC(=O)[C@H]1CC[C@@H](n2c(NC(=O)c3ccc(F)cc3)nc3ccc(CN4CCC(C(C)(C)O)CC4)cc32)CC1 [Belizatinib] | -92.8 | 7.23 |
| CC[C@@]1(O)C(=O)OCC/2=C1/C=C/3N(CC4=C(CCNC(C)C)C5=CC=CC=C5N=C34)C2=O [Belotecan] | -80.8 | 0.0166 |
| Nc1nc(Nc2ccc3c(c2)CC[C@@H](N2CCCC2)CC3)nn1-c1cc2c(nn1)-c1ccccc1CCC2 [Bemcentinib] | -108 | 14.8 |
| N/C(=N\C(=O)c1nc(Cl)c(N)nc1N)NCc1ccccc1 [Benzamil] | -81 | 20.9 |
| CC(C)COCC(CN(Cc1ccccc1)c1ccccc1)N1CCCC1 (configuration not stated) [Bepridil] | -104 | 16.6 |
| COc1ccc2cc3[n+](cc2c1OC)CCc1cc2c(cc1-3)OCO2 [Berberine] | -96.9 | 14.8 |
| CNCc1ccc(-c2cc(-c3nc(-c4ccc([S+](=O)([O-])C(C)C)cc4)cnc3N)on2)cc1 [Berzosertib] | -63 | 10.5 |
| C[N+](C)(C)CC(=O)O [Betaine] | -51.8 | 20.9 |
| Nc1cc(C(F)(F)F)c(-c2nc(N3CCOCC3)nc(N3CCOCC3)n2)cn1 [Bimiralisib] | -60.2 | 1.86 |
| CC1=C(C)C\2=C(S1)[N]3C(=NN=C3C(CC(=O)NC4=CC=C(O)C=C4)\N=C2C5=CC=C(Cl)C=C5)C (configuration not stated) [Birabresib] | -80.8 | 0.833 |
| O=C\1NC(=O)\C(=C1C2=C[NH]C3=C2C=CC=C3)C4=C[NH]C5=C4C=CC=C5 [Bisindolylmaleimide] | -85.7 | 18.6 |
| Cc1c(N)nc([C@H](CC(N)=O)NC[C@@H](N)C(N)=O)nc1C(=O)N[C@H](C(=O)N[C@@H](C)[C@H](O)[C@@H](C)C(=O)N[C@@H](C(=O)NCCc1nc(-c2nc(C(=O)NCCC[S+](C)C)cs2)cs1)[C@@H](C)O)C(O[C@H]1O[C@H](CO)[C@H](O)[C@@H](O)[C@H]1O[C@H]1O[C@H](CO)[C@@H](O)[C@H](OC(N)=O)[C@@H]1O)c1c[nH]cn1 (some centres not stated) [Bleomycin sulfate] | -34.2 | 1.62 |
| CC(C)C[C@H](NC(=O)[C@H](Cc1ccccc1)NC(=O)c1cnccn1)B(O)O [Bortezomib] | -94.1 | 0.0132 |
| COc1cc(Nc2c(C#N)cnc3cc(OCCCN4CCN(C)CC4)c(OC)cc23)c(Cl)cc1Cl [Bosutinib] | -93.7 | 4.68 |
| Cc1c(-c2ccc(-c3ccccc3F)cc2)nc2ccc(F)cc2c1C(=O)O [Brequinar] | -62.1 | 0.209 |
| COc1cc(OC)c(/C=C/[S+](=O)([O-])Cc2ccc(OC)c(OP(=O)(O)O)c2)c(OC)c1 [Briciclib] | -61.6 | 0.0468 |
| COc1cc(N2CCC(N3CCN(C)CC3)CC2)ccc1Nc1ncc(Cl)c(Nc2ccccc2P(C)(C)=O)n1 [Brigatinib] | -75.3 | 0.525 |
| Cc1ccc(Sc2ccccc2N2CCNCC2)c(C)c1 [Brintellix] | -92.6 | 11.8 |
| Cc1cc2c(F)c(Oc3ncnn4cc(OC[C@@H](C)O)c(C)c34)ccc2[nH]1 [Brivanib] | -80.3 | 9.34 |

| Compound | efficacy [1] [%] | AC50 cell viability [2] [µM] |
| --- | --- | --- |
| COC(=O)[C@@]12OC[C@]34[C@H]([C@@H](O)[C@@H]1O)[C@@]1(C)CC(=O)C(O)=C(C)[C@@H]1C[C@H]3OC(=O)[C@H](OC(=O)/C=C(\C)C(C)C)[C@@H]24 [Bruceantin] | -71.9 | 0.00833 |
| CCCC1OC2C[C@H]3[C@@H]4CCC5=CC(=O)C=C[C@]5(C)[C@H]4C(O)C[C@]3(C)[C@]2(C(=O)CO)O1 (some centres not stated) [Budesonide] | -52.3 | 18.6 |
| Clc1ccc(CCC(Cn2ccnc2)Sc2c(Cl)cccc2Cl)cc1 (configuration not stated) [Butoconazole nitrate] | -51.6 | 20.9 |
| COc1ccc([S+](=O)([O-])Nc2cc(-c3c(O)ccc4ccccc34)c(O)c3ccccc23)cc1 [C-188-9] | -95.1 | 26.3 |
| CCCNC(=O)[C@H]1O[C@@H]1C(=O)N[C@H](C(=O)N1CCC[C@H]1C(=O)OC)C(C)CC (some centres not stated) [CA-074 Me] | -88.8 | 18.6 |
| OCCNC1CCCc2c1[nH]c1ccc(-c3ccccc3)cc21 (configuration not stated) [CASIN] | -95.3 | 8.33 |
| Cc1cc2c(C(N)=O)cccc2n1-c1nc2c(c(NCc3ccccc3)n1)COCC2 [CB-5083] | -88.7 | 0.833 |
| CC(=O)c1ccc2c(c1)c1cc(C(C)=O)ccc1n2CCNC(C)C [CBL-0137] | -69.6 | 0.417 |
| CCN1C(=O)C\N=C/2N\C=C(/N=C12)C3=C(C)N=C(C=C3)C4=NN=C[NH]4 [CC-115] | -71 | 7.42 |
| CO[C@H]1CC[C@H](N2C(=O)CNc3ncc(-c4ccc(C(C)(C)O)nc4)nc32)CC1 [CC-223] | -85.5 | 9.34 |
| c1cc(OCCN2CCCCC2)cc(-c2n[nH]c3ccc(-c4nc[nH]n4)cc23)c1 [CC-401] | -70.1 | 14.8 |
| Cc1ccc(NC(=O)NCc2ccc3c(c2)CN(C2CCC(=O)NC2=O)C3=O)cc1Cl (configuration not stated) [CC-885] | -42.4 | 0.0934 |
| COC1CC(C(=O)c2ccc3c(N)ncc(-c4ccc(-c5cnn(C)c5)cc4)c3n2)C1 (configuration not stated) [CDK8i-51] | -34.9 | 5.25 |
| Cc1ccc(Nc2cc(-c3cccc(N4C(=O)c5ccccc5C4=O)c3)ncn2)cc1N[S+](C)(=O)[O-] [CDK9 Inhibitor] | -73.6 | 20.9 |
| COc1cc2c(cc1OC(C)C)[C@H](c1ccc(Cl)cc1)N(c1ccc(N(C)C[C@H]3CC[C@H](N4CCN(C)C(=O)C4)CC3)cc1)C(=O)C2 [CGM-097] | -123 | 14.8 |
| ClC1=CC\2=C(NC(=O)\C(=C2N[C@@H]3CN4CCC3CC4)C5=NC6=C([NH]5)C=CC=C6)C=C1 [CHIR-124] | -80.9 | 0.833 |
| Cn1c(Nc2ccc(C(F)(F)F)cc2)nc2cc(Oc3ccnc(-c4nc(C(F)(F)F)c[nH]4)c3)ccc21 [CHIR-265] | -108 | 5.25 |
| CC(=O)Nc1cc(Oc2ccc3c(nc(Nc4ccc(F)cc4F)n3C)c2C)ccn1 [CHZ868] | -67.4 | 0.833 |
| OC(=O)/C1=C/CCN(CCOC(C2=CC=C(C=C2)C(F)(F)F)C3=CC=C(C=C3)C(F)(F)F)C1 [CI-966] | -37.1 | 18.6 |

| Compound | efficacy [1] [%] | AC50 cell viability [2] [µM] |
| --- | --- | --- |
| CC(C)n1cnc2c(NCCCCCCNC(=O)OC(C)(C)C)nc(NCCO)nc21 [CK-59] | -79.7 | 26.3 |
| COc1c(C)cnc(Cn2cnc3c(Cl)nc(N)nc32)c1C [CNF-2024] | -57 | 0.148 |
| C=CC(=O)Nc1cccc(Nc2nc(Nc3ccc(Oc4ccnc(C(=O)NC)c4)cc3)ncc2F)c1 [CNX-774] | -111 | 14.8 |
| C=CC(=O)Nc1cccc(Nc2nc(Nc3ccc(NC4CN(CCF)C4)cc3OC)ncc2C(F)(F)F)c1 [CNX-2006] | -105 | 10.5 |
| CC1=C(C)C\2=C(S1)[N]3C(=NN=C3C(CC(N)=O)\N=C2C4=CC=C(Cl)C=C4)C (configuration not stated) [CPI-203] | -62.8 | 0.295 |
| CC1=C(C)C\2=C(S1)[N]3C(=NN=C3[C@H](CC(N)=O)\N=C2C4=CC=C(Cl)C=C4)C [CPI-203] | -58.5 | 0.372 |
| Cc1noc2c1-c1ccccc1C(c1ccc(Cl)cc1)=N[C@H]2CC(N)=O [CPI-0610] | -65.4 | 1.05 |
| C[C@@H]1CC(=O)Nc2cccc(-c3ccc4c(c3)c(-c3cnn(C)c3)nn4C)c2N1 [CPI-637] | -82.6 | 11.8 |
| C[C@@H]1CC(=O)Nc2cccc(-c3cnn(C(C)(C)C)c3)c2N1 [CPI-703] | -37.4 | 16.6 |
| O=C(NO)C1(C[S+](=O)([O-])c2ccc(Oc3ccc(Cl)cc3)cc2)CCOCC1 [CTS-1027] | -61.5 | 20.9 |
| C#Cc1cccc(Nc2ncnc3cc(OC)c(OCCCCCCC(=O)NO)cc23)c1 [CUDC-101] | -81.3 | 0.332 |
| CN(C)c1cc2c(cc1Sc1nc3c(N)nccc3n1CCNCC(C)(C)C)OCO2 [CUDC-305] | -66.5 | 0.468 |
| COc1ccc(-c2nc(N3CCOCC3)c3sc(CN(C)c4ncc(C(=O)NO)cn4)cc3n2)cn1 [CUDC-907] | -96.8 | 0.0372 |
| COc1ccc(CNc2nc(N(CCO)CCO)nc3c2ncn3C(C)C)cc1 [CVT-313] | -54.3 | 3.32 |
| CN1CCCN(CC1)C2=CC=C3C(=O)\C(=C/4SC5=C(C=CC=C5)N4C3=N2)C(=O)NCC6=CN=C(C)C=N6 [CX-5461] | -49.8 | 1.35 |
| CN1CCCN(C(=O)c2cccc(-c3ccc(/C=C4/C(=O)Nc5ccc(Cl)cc54)o3)c2)CC1 [CX-6258] | -97.8 | 7.42 |
| Cc1nc(N)sc1-c1ccnc(Nc2ccc(N3CCOCC3)cc2)n1 [CYC-116] | -61 | 2.09 |
| CO[C@H]1C[C@H]2OC[C@@]2(OC(C)=O)[C@H]3[C@H](OC(=O)C4=CC=CC=C4)[C@]5(O)C[C@H](OC(=O)[C@H](O)[C@@H](NC(=O)OC(C)(C)C)C6=CC=CC=C6)/C(=C(/[C@@H](OC)C(=O)[C@]13C)C5(C)C)C [Cabazitaxel] | -57.4 | 0.00263 |
